Measured values from paper PMC11990670, “Exploring the Volatility, Phase Transitions, and Solubility Properties of Five Halogenated Benzaldehydes” (Molecules, 2025).
Where “and” joins values, the source holds several entries; their conditions need not be identical. Identical values can stand only once. Like-named read-outs stand apart in the source and are kept apart here. Marks after values point to notes of the source that are not given here. Blank lines part the entries; values can stand above or below the compound they belong to.

Columns and labels:
[1] = Vapor pressures of crystalline and liquid phases, static method with capacitance diaphragm gauge; format: physicochemical
Description: A previously described and tested static apparatus was used to measure the vapor pressures of the condensed phases (both crystalline and liquid) of the five compounds studied. This installation employs MKS capacitance diaphragm absolute gauges, operating at self-regulated constant temperatures. Our lab is equipped with three pressure gauges. Gauge I, a Baratron 631A01TBEH (MKS instruments, Andover, MA, USA) (Tgauge = 423 K), measures pressures in the range of 0.5 to 1.3 × 10^2 Pa and operates within a temperature range of 253 to 413 K. Gauge II, the instrument used in this study, is a Baratron 631A11TBFP (MKS instruments, Andover, MA, USA) (Tgauge = 473 K), capable of measuring pressures from 0.5 to 1.3 × 10^3 Pa within a temperature range of 253 to 433 K and gauge III, a Baratron 631D02T8FP (MKS instruments, Andover, MA, USA) (Tgauge = 473 K), designed to measure pressures between 0.5 Pa and 2.6 × 10^2 Pa, also within a temperature range of 253 to 433 K. The temperatures of the samples were measured using a Pt100 platinum resistance thermometer, calibrated by comparison with a standard platinum resistance thermometer (SPRT: Tinsley Precision Instruments Ltd, London, England). To prevent vapor condensation, the tubing connecting the cell containing the condensed sample to the pressure gauge is maintained at a temperature higher than that of the sample but lower than that of the gauge. The uncertainty in temperature measurements is estimated to be u(T/K) = ±0.01, and the expanded uncertainties (0.95 confidence level, k = 2) in pressure measurements are given by the expression U(p/Pa) = 0.1 + 0.0050 (p/Pa) for the gauge used. Samples were thoroughly degassed before starting the vapor pressure measurements, ensuring consistent readings at specific temperatures and eliminating any residual volatile substances, including water.

[2] = cited from earlier work
[3] = 20 °C, cited from earlier work

vapor pressure p ([1]; crystalline phase, T = 283.09 K): 0.83 Pa | vapor pressure p ([1]; crystalline phase, T = 285.23 K): 1.07 Pa | vapor pressure p ([1]; crystalline phase, T = 287.05 K): 1.33 Pa | vapor pressure p ([1]; crystalline phase, T = 289.17 K): 1.71 Pa | vapor pressure p ([1]; crystalline phase, T = 291.17 K): 2.13 Pa | vapor pressure p ([1]; crystalline phase, T = 292.95 K): 2.63 Pa | vapor pressure p ([1]; crystalline phase, T = 295.00 K): 3.25 Pa | vapor pressure p ([1]; crystalline phase, T = 297.08 K): 4.12 Pa | vapor pressure p ([1]; crystalline phase, T = 298.95 K): 4.98 Pa | vapor pressure p ([1]; crystalline phase, T = 301.06 K): 6.27 Pa | vapor pressure p ([1]; crystalline phase, T = 302.93 K): 7.60 Pa | vapor pressure p ([1]; crystalline phase, T = 304.86 K): 9.21 Pa | vapor pressure p ([1]; crystalline phase, T = 306.87 K): 11.43 Pa | vapor pressure p ([1]; crystalline phase, T = 308.76 K): 13.82 Pa | vapor pressure p ([1]; crystalline phase, T = 310.84 K): 17.02 Pa | vapor pressure p ([1]; crystalline phase, T = 312.78 K): 20.28 Pa | vapor pressure p ([1]; crystalline phase, T = 314.77 K): 24.88 Pa | vapor pressure p ([1]; crystalline phase, T = 316.79 K): 29.92 Pa | vapor pressure p ([1]; crystalline phase, T = 318.78 K): 36.33 Pa | vapor pressure p ([1]; crystalline phase, T = 320.66 K): 43.34 Pa | vapor pressure p ([1]; crystalline phase, T = 322.62 K): 51.66 Pa | vapor pressure p ([1]; crystalline phase, T = 324.68 K): 61.49 Pa | vapor pressure p ([1]; liquid phase, T = 330.60 K): 103.9 Pa | vapor pressure p ([1]; liquid phase, T = 332.51 K): 117.8 Pa | vapor pressure p ([1]; liquid phase, T = 334.45 K): 131.9 Pa | vapor pressure p ([1]; liquid phase, T = 336.48 K): 148.9 Pa | vapor pressure p ([1]; liquid phase, T = 338.43 K): 168.4 Pa | vapor pressure p ([1]; liquid phase, T = 340.46 K): 189.9 Pa | vapor pressure p ([1]; liquid phase, T = 342.44 K): 213.5 Pa | vapor pressure p ([1]; liquid phase, T = 344.41 K): 240.4 Pa | vapor pressure p ([1]; liquid phase, T = 346.34 K): 266.7 Pa | vapor pressure p ([1]; liquid phase, T = 348.34 K): 300.1 Pa | vapor pressure p ([1]; liquid phase, T = 350.32 K): 333.2 Pa | vapor pressure p ([1]; liquid phase, T = 352.34 K): 375.3 Pa | vapor pressure p ([1]; liquid phase, T = 354.27 K): 418.5 Pa | vapor pressure p ([1]; liquid phase, T = 356.26 K): 463.6 Pa | vapor pressure p ([1]; liquid phase, T = 358.21 K): 513.4 Pa | vapor pressure p ([1]; liquid phase, T = 360.13 K): 573.1 Pa | vapor pressure p ([1]; liquid phase, T = 362.14 K): 628.6 Pa | vapor pressure p ([1]; liquid phase, T = 364.12 K): 701.8 Pa | vapor pressure p ([1]; liquid phase, T = 366.10 K): 775.8 Pa | vapor pressure p ([1]; liquid phase, T = 368.08 K): 860.4 Pa | vapor pressure p ([1]; liquid phase, T = 370.05 K): 946.6 Pa | vapor pressure p ([1]; liquid phase, T = 371.99 K): 1026 Pa | vapor pressure p ([1]; liquid phase, T = 373.98 K): 1147 Pa | vapor pressure p ([1]; supercooled liquid, T = 316.76 K): 39.76 ^d Pa | vapor pressure p ([1]; supercooled liquid, T = 318.77 K): 46.26 ^d Pa | vapor pressure p ([1]; supercooled liquid, T = 320.73 K): 53.22 ^d Pa | vapor pressure p ([1]; supercooled liquid, T = 322.70 K): 60.73 ^d Pa | vapor pressure p ([1]; supercooled liquid, T = 324.68 K): 69.79 ^d Pa | vapor pressure p ([1]; supercooled liquid, T = 326.64 K): 79.36 ^d Pa | vapor pressure p ([1]; supercooled liquid, T = 328.63 K): 90.64 ^d Pa
SMILES: O=Cc1ccc(Br)cc1 [4-Bromobenzaldehyde]
water solubility, estimated value ([2]; ALI method): 7.06 mM | water solubility, estimated value ([2]; ESOL method): 1.68 mM | water solubility, estimated value ([2]; SILICO-IT method): 0.634 mM

vapor pressure p ([1]; crystalline phase, T = 267.45 K): 0.57 Pa | vapor pressure p ([1]; crystalline phase, T = 269.33 K): 0.72 Pa | vapor pressure p ([1]; crystalline phase, T = 271.42 K): 0.93 Pa | vapor pressure p ([1]; crystalline phase, T = 273.29 K): 1.15 Pa | vapor pressure p ([1]; crystalline phase, T = 275.39 K): 1.48 Pa | vapor pressure p ([1]; crystalline phase, T = 277.25 K): 1.84 Pa | vapor pressure p ([1]; crystalline phase, T = 279.32 K): 2.33 Pa | vapor pressure p ([1]; crystalline phase, T = 281.20 K): 2.90 Pa | vapor pressure p ([1]; crystalline phase, T = 283.26 K): 3.60 Pa | vapor pressure p ([1]; crystalline phase, T = 285.16 K): 4.49 Pa | vapor pressure p ([1]; crystalline phase, T = 287.22 K): 5.65 Pa | vapor pressure p ([1]; crystalline phase, T = 289.23 K): 6.93 Pa | vapor pressure p ([1]; crystalline phase, T = 291.18 K): 8.49 Pa | vapor pressure p ([1]; crystalline phase, T = 293.07 K): 10.45 Pa | vapor pressure p ([1]; crystalline phase, T = 295.14 K): 12.75 Pa | vapor pressure p ([1]; crystalline phase, T = 297.14 K): 15.67 Pa | vapor pressure p ([1]; crystalline phase, T = 299.12 K): 19.07 Pa | vapor pressure p ([1]; crystalline phase, T = 300.99 K): 23.01 Pa | vapor pressure p ([1]; crystalline phase, T = 303.05 K): 28.05 Pa | vapor pressure p ([1]; crystalline phase, T = 305.04 K): 34.26 Pa | vapor pressure p ([1]; crystalline phase, T = 306.98 K): 40.71 Pa | vapor pressure p ([1]; crystalline phase, T = 309.01 K): 49.06 Pa | vapor pressure p ([1]; crystalline phase, T = 310.96 K): 58.06 Pa | vapor pressure p ([1]; crystalline phase, T = 312.92 K): 69.28 Pa | vapor pressure p ([1]; crystalline phase, T = 314.91 K): 82.74 Pa | vapor pressure p ([1]; liquid phase, T = 319.87 K): 125.4 Pa | vapor pressure p ([1]; liquid phase, T = 321.85 K): 143.8 Pa | vapor pressure p ([1]; liquid phase, T = 323.75 K): 162.2 Pa | vapor pressure p ([1]; liquid phase, T = 325.71 K): 183.0 Pa | vapor pressure p ([1]; liquid phase, T = 327.66 K): 206.8 Pa | vapor pressure p ([1]; liquid phase, T = 329.70 K): 235.5 Pa | vapor pressure p ([1]; liquid phase, T = 331.69 K): 264.4 Pa | vapor pressure p ([1]; liquid phase, T = 333.66 K): 298.2 Pa | vapor pressure p ([1]; liquid phase, T = 335.64 K): 336.0 Pa | vapor pressure p ([1]; liquid phase, T = 337.61 K): 375.5 Pa | vapor pressure p ([1]; liquid phase, T = 339.57 K): 415.3 Pa and 416.0 Pa | vapor pressure p ([1]; liquid phase, T = 341.56 K): 468.0 Pa | vapor pressure p ([1]; liquid phase, T = 343.52 K): 520.0 Pa | vapor pressure p ([1]; liquid phase, T = 345.50 K): 578.0 Pa | vapor pressure p ([1]; liquid phase, T = 347.47 K): 640.9 Pa | vapor pressure p ([1]; liquid phase, T = 347.50 K): 641.0 Pa | vapor pressure p ([1]; liquid phase, T = 349.45 K): 711.8 Pa | vapor pressure p ([1]; liquid phase, T = 351.43 K): 788.7 Pa | vapor pressure p ([1]; liquid phase, T = 353.30 K): 864.6 Pa | vapor pressure p ([1]; liquid phase, T = 355.30 K): 958.0 Pa | vapor pressure p ([1]; liquid phase, T = 357.33 K): 1058 Pa | vapor pressure p ([1]; supercooled liquid, T = 305.70 K): 48.17 ^d Pa | vapor pressure p ([1]; supercooled liquid, T = 307.91 K): 56.22 ^d Pa | vapor pressure p ([1]; supercooled liquid, T = 309.86 K): 65.09 ^d Pa | vapor pressure p ([1]; supercooled liquid, T = 311.92 K): 75.03 ^d Pa | vapor pressure p ([1]; supercooled liquid, T = 313.90 K): 86.06 ^d Pa | vapor pressure p ([1]; supercooled liquid, T = 315.83 K): 96.33 ^d Pa | vapor pressure p ([1]; supercooled liquid, T = 317.92 K): 110.0 ^d Pa
SMILES: O=Cc1ccc(Cl)cc1 [4-Chlorobenzaldehyde]
water solubility ([3]; converted from 935 mg/L): 6.652 mM | water solubility [3]: 935 µg/mL | water solubility, estimated value ([2]; 25 °C, converted from 1340 mg/L): 9.532 mM | water solubility, estimated value ([2]; 25 °C): 1340 µg/mL | water solubility, estimated value ([2]; ALI method): 8.15 mM | water solubility, estimated value ([2]; ESOL method): 3.45 mM | water solubility, estimated value ([2]; SILICO-IT method): 1.16 mM
